# Measured values from publication PMC2633461, “Porcine sclera as a model of human sclera for in vitro transport experiments: histology, SEM, and comparative permeability” (Molecular Vision, 2009).
# Like-named read-outs stand apart in the source and are kept apart here.
# How the values were obtained:
# [1] = cited from earlier work
# Text: Regardless of the nature of this interaction, we have estimated that the affinity of insulin for the sclera was the same for porcine and human tissues. […] These values (not statistically different between them, p=0.176) indicate a similar behavior of the two tissues toward insulin and also confirm that insulin has an effective affinity for the sclera. In fact, even if the absolute value of the par ...
# [2] = cited from earlier work; remark: listed apart in the source
# [3] = cited from earlier work; remark: listed apart in the source
# [4] = Description: Porcine globes were obtained from pigs (Large White, Landrance, Duroc; 10–11 months) that ranged in weight 145–190 kg and came from a local slaughterhouse. Porcine eyes were either used within 24 h of explantation or frozen at −80 °C until use. After thawing, the adherent muscle tissue was removed from the eye bulb, and the anterior segment of the eye was circumferentially cut behind the limbus. The eye was then cut into two halves, the vitreous was removed, and the anterior sclera was used for permeation experiments after the removal of the underling tissues using a cotton swab. The frozen tissues were used within three months of explantation.
# (§1) Permeation experiments were performed in Franz-type diffusion cells with an area of 0.2 cm^2 for human sclera and 0.6 cm^2 for porcine sclera.
# (§2) To reduce edge damage, a thin layer of silicone lubricant was applied to the glass surface, and the minimum force necessary to keep the cell sealed was applied.
# (§3) The receptor compartment contained 4 ml of 25 mM HEPES buffer (pH 7.4) added with 0.9% NaCl, kept at 37 °C, and magnetically stirred. […] At predetermined time intervals, the receptor solution was sampled for the determination of drug permeated.
# (§4) The transscleral flux, i.e., the amount of drug that crosses 1 cm^2 of sclera in 1 h (J, µg/cm^2h) was calculated as the slope of the regression line at the steady-state while the lag time was the intercept of the regression line on the x-axis. The permeability coefficient (P, cm/s) was calculated as J/Cv where Cv represents the concentration of the donor solution.
# (§5) Experiments performed with human sclera were replicated three to four times while those performed on porcine sclera were replicated five to seven times. All the experiments were performed using previously frozen tissues, and acetaminophen permeability was tested also through fresh pig sclera.
# (§6) Acetaminophen and insulin were analyzed by HPLC with a Perkin-Elmer instrument (Norwalk, CT), which is made of an isocratic pump LC250 an UV detector LC290, and the Perkin Elmer Turbochrom Workstation software.
# (§7) Acetaminophen was analyzed using a C18 Novapak® column (150×3.9 mm; Waters, Milford, MA) and a mobile phase composed of 92% (v/v) 10 mM sodium acetate pH 4 and 8% (v/v) acetonitrile, which was pumped at 1 ml/min. The detector was set at 254 nm.
# (§8) Insulin was analyzed using a C18 Symmetry300® column (250×4.6 mm; Waters) at 40 °C and a mobile phase composed of 73% (v/v) aqueous phase and 27% (v/v) acetonitrile, which was pumped at 1 ml/min. The aqueous phase contained anhydrous sodium sulfate 28.4 g/l and phosphoric acid 2.7 ml/l and was adjusted at pH 2.3 with ethanolamine. The detector was set at 214 nm.
# (§9) The excitation and emission λ were 490 and 520 nm, respectively.
# [5] = no reference given; cited from earlier work
# Description: The permeability was evaluated using three model compounds. […] Insulin has been chosen as a model protein. It has a molecular weight of 5,734 Da, a molecular radius of the monomeric form of 1.13 nm or 2.0 nm, and an isoelectric point of about 5.4. […] Permeation experiment ...
# [6] = Affinity of insulin for scleral tissue: partition coefficient, human sclera / aqueous solution; type: in vitro ADME; conditions: insulin about 100 µg/ml in HEPES pH 7.4 with EDTA and lysine, 0.4 ml on 50-100 mg tissue, 3 h, room temperature, HPLC, mean±SEM, n at least 6
# Description: (§10) Affinity of insulin for scleral tissue was estimated by measuring its partition coefficient between human or porcine sclera and an aqueous solution at pH 7.4. Insulin was dissolved in the aqueous vehicle that was used as donor for the permeation experiments at a concentration of about 100 µg/ml. This solution (0.4 ml) was added to a previously weighed amount of human or porcine sclera (50–100 mg) in a 2.0 ml vial. The insulin solution and the scleral tissues were incubated at room temperature for 3 h. The solution was then filtered (regenerated cellulose, 0.45 µm pore size) and analyzed by HPLC for the determination of the final insulin concentration in the water phase [Wf]. The insulin concentration [S] in the sclera after the incubation period was calculated as:
# (§11) [S]=[Wi] x VW - [Wf] x VW/VS
# (§12) where [Wi] is the initial concentration of insulin in the aqueous phase, [Wf] is the concentration of insulin in the aqueous phase after the incubation period, VW is the volume of the aqueous phase (0.4 ml), and VS is the volume of the sclera, which was estimated by its weight and by considering the scleral density to be equal to 1 g/ml.
# (§13) The partition coefficient (Ks/w) was then calculated as: […]
# (§14) Each experiment was replicated at least six times.
# [7] = remark: listed apart in the source
# Description: Human corneal-scleral rims, which were discarded following harvesting of the corneal button (Regional Cornea Bank, Bologna, Italy), were frozen in liquid nitrogen and used within 15 days of explantation.
# as §1, §2, §3, §4, §5, §6, §7, §8, §9
# [8] = Affinity of insulin for scleral tissue: partition coefficient, porcine sclera / aqueous solution; type: in vitro ADME, pig; conditions: insulin about 100 µg/ml in HEPES pH 7.4 with EDTA and lysine, 0.4 ml on 50-100 mg tissue, 3 h, room temperature, HPLC, mean±SEM, n at least 6
# Description: as §10, §11, §12, §13, §14
# [9] = cited from earlier work; remark: listed apart in the source
# [10] = neutral molecules of different lipophilicity, rhodamine 6G electrically charged at the pH of the experiment
compound,measurement,setting,value
OC[C@H]1O[C@@](CO)(O[C@H]2O[C@H](CO)[C@@H](O)[C@H](O)[C@H]2O)[C@@H](O)[C@@H]1O [sucrose],Partition coefficient sclera (literature),[1],0.6
Insulin from bovine pancreas [listing 1 of 2 here],Molecular radius of the monomeric form,[2],1.13 nm
same,Molecular radius (dimers/hexamers in solution),[3],2.5 nm
Cc1ccc(-c2cc(C(F)(F)F)nn2-c2ccc(S(N)(=O)=O)cc2)cc1 [celecoxib],Partition coefficient sclera (literature),[1]; [10],1.4
CC/N=c1\cc2oc3cc(NCC)c(C)cc3c(-c3ccccc3C(=O)OCC)c-2cc1C [rhodamine 6G],Partition coefficient sclera (literature),[1]; [10],high affinity
OC[C@@H](O)[C@@H](O)[C@H](O)[C@H](O)CO [mannitol],Partition coefficient sclera (literature),[1]; [10],0.005
CCCC1O[C@@H]2C[C@H]3[C@@H]4CCC5=CC(=O)C=C[C@]5(C)[C@H]4[C@@H](O)C[C@]3(C)[C@]2(C(=O)CO)O1 (stereo partly shown) [budesonide],Partition coefficient sclera (literature),[1]; [10],1.2
Insulin from bovine pancreas [listing 2 of 2 here],Flux,"[4]; porcine sclera, previously frozen, Franz-type cell 0.6 cm^2, donor 4.9 mg/ml acetaminophen, 1 mg/ml FD-150 or 1 mg/ml insulin in 25 mM HEPES pH 7.4, receptor HEPES pH 7.4 + 0.9% NaCl (0.3% BSA for insulin), 37 °C, slope at steady state, HPLC-UV (FD-150 fluorescence), mean±SEM, n = 5-7, SEM",3.74±2.10 µg/cm^2h
same,Lag-time,"[4]; porcine sclera, previously frozen, intercept of the regression line on the x-axis, donor pH 7.4, 37 °C, mean±SEM, n = 5-7, SEM",198 ± 23 min
same,DK (diffusion coefficient x partition coefficient),"[4]; porcine sclera, from P = DK/H with H = tissue thickness (1.25 mm), mean±SEM, SEM",0.11±0.05 cm^2/s x10^−6
same,isoelectric point,[5],about 5.4
same,Partition coefficient (Ks/w) between sclera and donor solution,[6],10.3±1.2
same,Flux,"[7]; human sclera, previously frozen, Franz-type cell 0.2 cm^2, donor 4.9 mg/ml acetaminophen, 1 mg/ml FD-150 or 1 mg/ml insulin in 25 mM HEPES pH 7.4, receptor HEPES pH 7.4 + 0.9% NaCl (0.3% BSA for insulin), 37 °C, slope at steady state, HPLC-UV (FD-150 fluorescence), mean±SEM, n = 3-4, SEM",6.93±1.14 µg/cm^2h
same,P (permeability coefficient),"[7]; human sclera, previously frozen, Franz-type cell 0.2 cm^2, donor pH 7.4 HEPES, 37 °C, P = J/Cv, mean±SEM, n = 3-4",1.93±0.32 cm/s x10^−6
same,Lag-time,"[7]; human sclera, previously frozen, intercept of the regression line on the x-axis, donor pH 7.4, 37 °C, mean±SEM, n = 3-4, SEM",71 ± 6 min
same,DK (diffusion coefficient x partition coefficient),"[7]; human sclera, from P = DK/H with H = tissue thickness (0.59 mm), mean±SEM, SEM",0.11±0.02 cm^2/s x10^−6
same,Flux through human sclera relative to pig sclera,[7]; ratio human / pig sclera flux,2 times
same,Partition coefficient (Ks/w) between sclera and donor solution,[8],7.0±1.1
"CC(=O)Nc1ccc(O)cc1 [Acetaminophen, acetaminophen]",Molecular radius,[9],0.36 nm
same,DK (diffusion coefficient x partition coefficient),[4]; SEM,1.95±0.26 cm^2/s x10^−6
same,Effect of freezing on tissue permeability (fresh vs previously frozen porcine sclera),[4]; pH 7.4,did not have any effect on tissue permeability
same,P (permeability coefficient),[4]; pH 7.4,15.6±2.1 cm/s x10^−6
same,Lag-time,"[4]; pH 7.4, SEM",35 ± 2 min
same,Flux through human sclera relative to pig sclera,[7],2 times
same,DK (diffusion coefficient x partition coefficient),[7]; SEM,2.05±0.18 cm^2/s x10^−6
same,Lag-time,[7]; pH 7.4,no lag time was detectable
same,P (permeability coefficient),[7]; pH 7.4,34.9±3.0 cm/s x10^−6
same,Permeability coefficient across human sclera,[7]; pH 7.4,3.49 [±0.3] x10^-5 cm/s
